Earlier results as cited in patent US8853454B2, “Quaternary ammonium salts as microbe inhibitors” (Mionix Corporation, priority 2006, dated 2014).

Conditions: in vivo

With `OCCCl` [2-chloroethanol] as the compound, how does the oral lethal dose read?
Its oral lethal dose is 50 to 500 mg/kg.
